The structures appear in SMILES notation.

For one data set, the system named is Ph-ALL3.1 cells. The experiment in a line: Release of elutriated S phase cells, FACS and 3H-thymidine incorporation. In kind it is cell-based, human. The method, then:
FIG. 5. […] Ph-ALL3.1 cells were subjected to standard centrifugal elutriation conditions and the S phase fraction, as determined by FACS analysis, was released into granaticin A (1 μM) or vehicle control (DMSO) for the indicated times and FACS analysis was performed. […] Apoptosis was confirmed in additional independent experiments. Asynchronous and time zero correspond to an asynchronous cell sample and the elutriated S phase fraction prior to release, respectively.
FIG. 6. Thymidine incorporation in S-phase: ^3H-Thymidine incorporation during the release experiment outlined in the slide above. Cell samples post-release into granaticin A or vehicle control (DMSO) were pulsed for 2 hours with ^3H-thymidine, and samples were collected, washed, and acid precipitable counts were measured by scintillation counting. X-axis is time post-release into compound or control (in hours) and y-axis is counts per minute (CPM).
(Dividing cells build labelled thymidine or BrdU into new DNA.)

For another data set, the system named is HeLa cells. The data set is described as follows: Caspase-3 activity in HeLa cells. In kind it is cell-based, human. Conditions: rescued by Bcl-XL overexpression and 10 micromolar Ac-DEVD-CHO. How it is done:
FIGS. 12-14. Inhibition of Granaticin A Induced Caspase-3 Activity in HeLa cells. Growth curves in the presence of the indicated micromolar concentrations of granaticin A were performed and caspase-3 activity was measured following addition of a substrate that when cleaved by caspase-3 results in light emission which is quantitated by a fluorimeter (y-axis) as a function of time (x-axis).

The test system of another data set is PhALL3.1. In kind it is in vivo. The source says:
FIGS. 20A-20C. Granaticin B Inhibits Ph-ALL3. 1 growth in vivo: Given the rapid intravenous clearance of granaticin A by the liver, granaticin B was used in a continuous infusion experiment with the PhALL3.1 animal model. Diffusion pumps containing granaticin B were surgically implanted in the flanks of 5 cohorts of mice on day +3 after injection of 5 million cells via the tail veins, and the drug (or control—C-DMSO) at the indicated concentration was allowed to diffuse for seven days before pump removal. The mice were imaged on day 12 (FIGS. 20A-20B) and tumor volume remaining was calculated (FIG. 20C).

With `CC1OC2CC(O)C1(O)c1c(O)c3c(c(O)c12)C(=O)C1=C(C3=O)[C@H](C)O[C@H]2CC(=O)O[C@@H]12` (some centres unmarked) [Granaticin A, granaticin A], the “cell cycle profile by FACS” value in the data set with Ph-ALL3.1 cells (S phase fraction released into 1 μM) was “cell cycle arrest and apoptosis”. Besides, the 3H-thymidine incorporation result in the data set on Ph-ALL3.1 cells (S phase fraction, 2 hours pulses post-release) is “markedly reduced incorporation”. Moreover, the caspase-3 activity result with HeLa cells is “activation of caspase-3 and apoptosis”.
With `CC1OC2CC(O[C@H]3CC[C@H](O)[C@H](C)O3)C1(O)c1c(O)c3c(c(O)c12)C(=O)C1=C(C3=O)[C@H](C)O[C@H]2CC(=O)O[C@@H]12` (some centres unmarked) [Granaticin B, granaticin B], the tumor reduction with PhALL3.1 (highest dose, diffusion pump for seven days from day +3, imaged on day 12) is recorded as 95%. In addition, the “organ toxicity at necropsy” value with PhALL3.1 (mouse, in vivo) is reported as “without obvious organ toxicity”.

Source of the values: US20210283099A1, “CDC7 KINASE INHIBITORS AND USES THEREOF” (SLOAN-KETTERING INSTITUTE FOR CANCER RESEARCH, priority 2010, published 2021).
